US20180000085A1, “USE OF PICOLINAMIDE COMPOUNDS WITH FUNGICIDAL ACTIVITY” (DOW AGROSCIENCES LLC, priority 2014, published 2018)

How the values were obtained:
Puccinia triticina = assay: Wheat brown rust (PUCCRT) disease control on wheat seedlings; format: in vivo; conditions: for PUCCRT 1DP disease control rating, HV activity / PUCCRT 3DC disease control rating, HV activity: HV application at 100 ppm
Zymoseptoria tritici = assay: Leaf blotch of wheat (SEPTTR) disease control on wheat seedlings; format: in vivo; design: key to SEPTTR 1DP, HV activity at 100 ppm (% control rating) / SEPTTR 3DC, HV activity at 100 ppm (% control rating) / SEPTTR disease control, 1DP / SEPTTR disease control, 3DC / SEPTTR 1DP disease control rating, HV activity / SEPTTR 3DC disease control rating, HV activity / SEPTTR 3DC, LV activity at 125.1 g/H (% Control rating) / SEPTTR 1DP, LV activity at 125.1 g/H (% Control rating) / SEPTTR 1DP disease control rating, LV activity at 125.1 g/H / SEPTTR 3DC disease control rating, LV activity at 125.1 g/H / SEPTTR 3DC disease control rating, HV activity at 100 ppm / SEPTTR 1DP disease control rating, HV activity at 100 ppm / HV activity at 100 ppm SEPTTR 3DC (disease control rating) / HV activity at 100 ppm SEPTTR 1DP (disease control rating) / LV activity at 125.1 g/H SEPTTR 1DP (disease control rating) / LV activity at 125.1 g/H SEPTTR 3DC (disease control rating): A: > 80; B: ≤ 80; C: Not Tested; D: No Activity Observed in the Reported Assay; conditions: for SEPTTR 1DP disease control rating, HV activity / SEPTTR 3DC disease control rating, HV activity: HV application at 100 ppm
[1] = low volume application, 125.1 g/H, 1 Day Protectant
[2] = low volume application, 125.1 g/H, 3 Day Curative
[3] = 1 Day Protectant, wheat brown rust
[4] = 3 Day Curative, wheat brown rust
[5] = 1 Day Protectant, wheat leaf blotch
[6] = 3 Day Curative, wheat leaf blotch
[7] = high volume application, 100 ppm, 1 day protectant
[8] = high volume application, 100 ppm, 3 day curative

Structure (SMILES)	PUCCRT 1DP, LV activity at 125.1 g/H (% Control rating) (Puccinia triticina; [1])	PUCCRT 3DC, LV activity at 125.1 g/H (% Control rating) (Puccinia triticina; [2])	SEPTTR 1DP, LV activity at 125.1 g/H (% Control rating) (Zymoseptoria tritici; [1])	SEPTTR 3DC, LV activity at 125.1 g/H (% Control rating) (Zymoseptoria tritici; [2])	PUCCRT 1DP disease control rating, HV activity (Puccinia triticina; [3])	PUCCRT 3DC disease control rating, HV activity (Puccinia triticina; [4])	SEPTTR 1DP disease control rating, HV activity (Zymoseptoria tritici; [5])	SEPTTR 3DC disease control rating, HV activity (Zymoseptoria tritici; [6])	further results
COc1ccnc(C(=O)NC(C(=O)OC(C)C(Oc2ccccc2)C(C)C)C(F)(F)F)c1OCOC(C)=O (mixture of isomers) [Cmpd 1073]									LV activity at 125.1 g/H PUCCRT 1DP (disease control rating) (Puccinia triticina; low volume application, 125.1 g/H, 1 Day Protectant, wheat brown rust): A (> 80); LV activity at 125.1 g/H PUCCRT 3DC (disease control rating) (Puccinia triticina; low volume application, 125.1 g/H, 3 Day Curative, wheat brown rust): A (> 80); LV activity at 125.1 g/H SEPTTR 1DP (disease control rating) (Zymoseptoria tritici; low volume application, 125.1 g/H, 1 Day Protectant, wheat leaf blotch): B (≤ 80); LV activity at 125.1 g/H SEPTTR 3DC (disease control rating) (Zymoseptoria tritici; low volume application, 125.1 g/H, 3 Day Curative, wheat leaf blotch): B (≤ 80)
COc1ccnc(C(=O)N[C@@H](C)C(=O)O[C@@H](C)[C@H](Oc2cccc(-c3ccccc3)c2)C(C)C)c1OCOC(C)=O [Cmpd 613]	A (> 80)	A (> 80)	B (≤ 80)	B (≤ 80)					
CCC(CC)[C@@H](Oc1ccc(C(F)(F)F)cc1)[C@H](C)OC(=O)[C@H](C)NC(=O)c1nccc(OC)c1OCOC(C)=O [Cmpd 594]	A (> 80)	A (> 80)	A (> 80)	B (≤ 80)					
COc1ccnc(C(=O)N[C@@H](C)C(=O)O[C@@H](C)[C@H](Oc2ccc3ccccc3c2)C(C)C)c1OCOC(C)=O [Cmpd 622]	A (> 80)	A (> 80)	D	B (≤ 80)					
CCCOC(CC)C(Oc1ccccc1)C(C)OC(=O)C(C)NC(=O)c1nccc(OC)c1OC(C)=O (stereo not shown) [Cmpd 450]					A (> 80)	A (> 80)	A (> 80)	A (> 80)	PUCCRT 1DP disease control rating, LV activity (Puccinia triticina; Low volume application at 125.1 g/H, 1 Day Protectant, wheat brown rust): A (> 80); PUCCRT 3DC disease control rating, LV activity (Puccinia triticina; Low volume application at 125.1 g/H, 3 Day Curative, wheat brown rust): A (> 80); SEPTTR 1DP disease control rating, LV activity (Zymoseptoria tritici; Low volume application at 125.1 g/H, 1 Day Protectant, wheat leaf blotch): B (≤ 80); SEPTTR 3DC disease control rating, LV activity (Zymoseptoria tritici; Low volume application at 125.1 g/H, 3 Day Curative, wheat leaf blotch): B (≤ 80)
CCC(Cc1ccccc1)C(OCC(C)C)C(C)OC(=O)C(C)NC(=O)c1nccc(OC)c1OCOC(C)=O (stereo not shown) [Cmpd 454]					A (> 80)	A (> 80)	A (> 80)	A (> 80)	
COc1ccnc(C(=O)N[C@@H](C)C(=O)O[C@@H](C)[C@@H](CC(C)C)Oc2ccc(Cl)cc2)c1O [Cmpd 1047]									HV activity at 100 ppm PUCCRT 1DP (disease control rating) (Puccinia triticina; HV application, 100 ppm, 1 Day Protectant, wheat brown rust): A (> 80); HV activity at 100 ppm PUCCRT 3DC (disease control rating) (Puccinia triticina; HV application, 100 ppm, 3 Day Curative, wheat brown rust): A (> 80); HV activity at 100 ppm SEPTTR 1DP (disease control rating) (Zymoseptoria tritici; HV application, 100 ppm, 1 Day Protectant, wheat leaf blotch): B (≤ 80); HV activity at 100 ppm SEPTTR 3DC (disease control rating) (Zymoseptoria tritici; HV application, 100 ppm, 3 Day Curative, wheat leaf blotch): A (> 80)
C=CC[C@@H](Oc1cccc(Cl)c1)[C@H](C)OC(=O)[C@H](C)NC(=O)c1nccc(OC)c1O [Cmpd 1021]									PUCCRT 1DP disease control rating, HV activity at 100 ppm (Puccinia triticina; [7]): A (> 80); PUCCRT 3DC disease control rating, HV activity at 100 ppm (Puccinia triticina; [8]): A (> 80); SEPTTR 1DP disease control rating, HV activity at 100 ppm (Zymoseptoria tritici; [7]): A (> 80); SEPTTR 3DC disease control rating, HV activity at 100 ppm (Zymoseptoria tritici; [8]): A (> 80)
CC[C@H](Oc1ccccc1)[C@@H](Oc1ccccc1)[C@H](C)OC(=O)[C@H](C)NC(=O)c1nccc(OC)c1O [Cmpd 309]					A (> 80)	A (> 80)	A (> 80)	B (≤ 80)	
